This is an account of results in PMC9607081 (Membranes, 2022).

Substitutions are numbered along the chain they refer to. Where two headings read alike, the source gives them in different places.

Assay type in all cases: cell-based
The target of test [1] is T1, human GlyR α1 subunit P96A (Homo sapiens, UniProt P23415, P124A).
T1 construct: expressed in transfected cells; host or cells: Xenopus laevis oocytes injected with receptor mRNA
T1 sequence (P23415 29-457 P124A): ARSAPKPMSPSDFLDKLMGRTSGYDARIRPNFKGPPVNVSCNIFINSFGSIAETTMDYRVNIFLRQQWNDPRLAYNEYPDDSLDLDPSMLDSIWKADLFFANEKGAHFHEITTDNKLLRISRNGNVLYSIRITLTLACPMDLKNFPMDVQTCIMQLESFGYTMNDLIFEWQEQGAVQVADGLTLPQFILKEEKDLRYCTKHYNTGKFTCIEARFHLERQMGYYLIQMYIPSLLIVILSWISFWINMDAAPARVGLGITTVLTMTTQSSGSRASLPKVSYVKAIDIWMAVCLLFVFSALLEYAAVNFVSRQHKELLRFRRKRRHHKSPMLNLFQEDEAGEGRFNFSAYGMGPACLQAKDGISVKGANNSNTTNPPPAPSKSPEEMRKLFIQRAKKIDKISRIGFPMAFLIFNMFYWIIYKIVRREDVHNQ
The test is described as follows: Two-electrode voltage clamp of Xenopus oocytes expressing P96A GlyR. As to conditions: for nH (Hill coefficient): Table 1, n = 5; for EC50: Table 1, −60 mV. As to the method:
(§1) Injection volumes were 50–100 nL per cell.
(§2) All experiments were performed at 22–25 °C. […] The holding potential was −60 mV unless otherwise specified.
For orientation: In two-electrode clamp one electrode senses voltage and the other passes current.

Test [2] has as its target T2, human GlyR α1 subunit P146A (Homo sapiens, UniProt P23415, P174A).
T2 construct: expressed in transfected cells; host or cells: Xenopus laevis oocytes injected with receptor mRNA
T2 sequence (P23415 29-457 P174A): T1 sequence (P23415 29-457 P124A) with A96P, P146A
Kind of test: Two-electrode voltage clamp of Xenopus oocytes expressing P146A GlyR. The conditions noted are these: for nH (Hill coefficient): Table 1, n = 5; for EC50: Table 1, −60 mV. Here is the method: as §1, §2

Test [3] concerns the target T3, human GlyR α1 subunit P230A (Homo sapiens, UniProt P23415, P258A).
T3 construct: expressed in transfected cells; host or cells: Xenopus laevis oocytes injected with receptor mRNA
T3 sequence (P23415 29-457 P258A): T1 sequence (P23415 29-457 P124A) with A96P, P230A
Kind of test: Two-electrode voltage clamp of Xenopus oocytes expressing P230A GlyR. The conditions noted are these: for nH (Hill coefficient): Table 1, n = 5; for EC50: Table 1, −60 mV. Here is the method: as §1, §2

Test [4] concerns the target T4, human GlyR α1 subunit P146 (CysL) substituted with 2MeP (Homo sapiens, UniProt P23415, P174X).
T4 sequence (P23415 29-457 P174X): T1 sequence (P23415 29-457 P124A) with A96P, P146X
Kind of test: TEVC, oocytes, nonsense suppression, P146 2MeP. As to conditions: for EC50: n = 3. As to the method: The cDNA for the human GlyR α1 subunit was in pGEMHE (ThermoFischer Scientific, Bishops Stortford, UK). Site-directed mutagenesis was performed using QuikChange (Agilent Technologies, Milton Keynes, UK) to generate the appropriate codon. For non-canonical amino acid mutants and conventional mutants generated by nonsense suppression, the site of interest was mutated to the TAG stop codon. Receptor mRNA was then prepared by in vitro runoff transcription using the Ambion T7 mMessage mMachine kit (ThermoFischer Scientific, Bishops Stortford, UK). Noncanonical amino acids were ligated to tRNA as previously described.
Stage V-VI oocytes of Xenopus laevis were harvested and injected with RNAs as described previously. For nonsense suppression experiments, each cell was injected with 50–100 ng each of receptor mRNA and tRNA charged with the appropriate Pro analogue ~48 h before recording. For wild type and conventional mutants, each cell received a single injection of 10–25 ng of receptor mRNA ~24 h before recording. Injection volumes were 50–100 nL per cell.
As a negative control for suppression experiments at each site, unligated tRNA was co-injected with mRNA in the same manner as charged tRNA. […] Pro recovery (injecting tRNA charged with Pro to regenerate a wild type channel via nonsense suppression) was used alongside Pro analogues as a positive control.
Two-electrode voltage clamping of Xenopus oocytes was performed using standard electrophysiological procedures as previously, using an OpusXpress system (Axon Instruments, Inc., Union City, CA, USA). All experiments were performed at 22–25 °C. […] The holding potential was −60 mV unless otherwise specified. […] Data were analysed using Prism (GraphPad Software Inc., San Diego, CA, USA), fitting concentration-response data to the four-parameter logistic equation. Statistical analysis was performed using ANOVA with a Dunnett’s multiple comparisons post test.

[5] abbreviates: n = 5, read-out: pEC50 (converted).

Regarding `NCC(=O)O` [Gly, glycine], the figures for the “nH (Hill coefficient)” value in test [1], in test [2] and in test [3] were 2.2 ± 0.3, 2.4 ± 0.7 and 2.2 ± 0.4, respectively. Besides, the nH in test [4] (Table 2, n = 6) is given as 2.2 ± 0.5; in test [4] (Table 3, n = 3), 3.6 ± 0.2.

On to `NCCS(=O)(=O)O` [Tau, taurine], for which the “nH (Hill coefficient)” value was found to be 1.9 ± 0.2 in test [1], 1.5 ± 0.3 in test [2] and 2.2 ± 0.4 in test [3]. In addition, the EC50 in test [1] (n = 5, read-out: EC50) was 2440 µM; in test [1] (setting [5]), 2440 µM; in test [2] (n = 5, read-out: EC50) it was 1410 µM; in test [2] (setting [5]), 1410 µM; in test [3] (n = 5, read-out: EC50), 1190 µM; in test [3] (setting [5]), 1190 µM. Also, the EC50 in test [4] (EC50, Table 3, nonsense suppression) was 3180 µM; in test [4] (pEC50, Table 3, nonsense suppression) it was 3180 µM. Also, the “% ImaxTau /ImaxGly” value in test [1] (n = 5) is recorded as 36 ± 2 %; in test [2] (n = 5) it was 39 ± 3 %; in test [3] (n = 5) it was 20 ± 1 %. This compound returned a nH in test [4] (Table 3, n = 3) of 2.4 ± 0.6. In addition, the Emax in test [4] (Table 3, n = 3, read-out: % ImaxTau /ImaxGly) is 18 ± 2%.
